According to patent US20110195982A1, “PREDICTIVE MARKER FOR EGFR INHIBITOR TREATMENT” (priority 2007, published 2011):

Key:
NSCLC [1] = conditions: second line therapy of NSCLC; cited from earlier work
[2] = patients with cancer, 150 mg/day; cited from earlier work
NSCLC [3] = conditions: single agent, after failure of standard therapy for advanced disease, versus placebo; cited from earlier work
[4] = doses that provide the targeted effective concentration; cited from earlier work
advanced NSCLC = assay: open-label, predictive marker identification Phase II study of Tarceva monotherapy; type: in vivo, human
Procedure: The selection of this dose was based on pharmacokinetic parameters, as well as the safety and tolerability profile of this dose observed in Phase I, II and III trials in heavily pre-treated patients with advanced cancer. Drug levels seen in the plasma of patients with cancer receiving the 150 mg/day dose were consistently above the average plasma concentration of 500 ng/ml targeted for clinical efficacy.
This was an open-label, predictive marker identification Phase II study. The study was conducted in approximately 26 sites in about 12 countries. 264 patients with advanced NSCLC following failure of at least one prior chemotherapy regimen were enrolled over a 12 month period. […] Dose reductions were permitted based on tolerability to drug therapy. Clinical and laboratory parameters were assessed to evaluate disease control and toxicity. Treatment continued until disease progression, unacceptable toxicity or death. The study design is depicted in FIG. 1.
The RECIST (Uni-dimensional Tumour Measurement) criteria were used to evaluate response. These criteria can be found under the following link: http://www.eortc.be/recist/
Note that: To be assigned a status of CR or PR, changes in tumour measurements must be confirmed by repeated assessments at least 4 weeks apart at any time during the treatment period.
In the case of SD, follow-up measurements must have met the SD criteria at least once after study entry at a minimum interval of 6 weeks.
In the case of maintained SD, follow-up measurements must have met the SD criteria at least once after study entry with maintenance duration of at least 12 weeks.
A regular status check every 3 months was performed either by a patient's visit to the clinic or by telephone. All deaths were recorded. At the end of the study a definitive confirmation of survival was required for each patient.

NSCLC [5] = conditions: second line after cisplatin-based first-line regimens, ECOG 0, 1 or 2, versus best supportive care; cited from earlier work
[6] = 75 patients with qRT-PCR results
[7] = 102 patients with microarray data
[8] = all 264 enrolled patients, 150 mg/day oral
[9] = of the 102 patients with microarray data

Nc1nc2[nH]cc(CCc3ccc(C(=O)N[C@@H](CCC(=O)O)C(=O)O)cc3)c2c(=O)[nH]1 [pemetrexed]
efficacy compared with docetaxel (NSCLC [1]): clinically equivalent efficacy | side effects compared with docetaxel (NSCLC [1]): significantly fewer side effects

C#Cc1cccc(Nc2ncnc3cc(OCCOC)c(OCCOC)cc23)c1 [Tarceva, erlotinib]
drug levels in plasma [2]: > 500 ng/mL | survival of NSCLC patients (NSCLC [3]): significantly prolongs and improves the survival | safety and tolerability [4]: safe and generally well tolerated | PD (advanced NSCLC; [6]): 52% | partial response (PR) (advanced NSCLC; [6]): 5% | Best Response SD, n (%) (advanced NSCLC; [7]): 31 (30.4%) | Clinical Benefit YES, n (%) (advanced NSCLC; [7]): 21 (20.6%) | clinical benefit (objective response or stable disease for 12 weeks or more) (advanced NSCLC; [8]): 31.4% | median overall survival (advanced NSCLC; [8]): 7.6 (CI 7-9) months | median progression-free survival (advanced NSCLC; [8]): 11.3 (CI 8-12) weeks | patients achieving an objective response (advanced NSCLC; all 264 enrolled patients, 150 mg/day oral, RECIST): 13.6% | number of partial responders (PR) (advanced NSCLC; [9]): 6 | number of patients with PD (advanced NSCLC; [9]): 49 | number of patients with SD (advanced NSCLC; [9]): 31 | patients achieving a CR (advanced NSCLC; [9]): no patients achieving a CR

CC(=O)O[C@@]12CO[C@@H]1C[C@H](O)[C@@]1(C)C(=O)[C@H](O)C3=C(C)[C@@H](OC(=O)[C@H](O)[C@@H](NC(=O)OC(C)(C)C)c4ccccc4)C[C@@](O)([C@@H](OC(=O)c4ccccc4)[C@H]21)C3(C)C [docetaxel]
survival (NSCLC [5]): improved survival
